Experimental data published in PubChem BioAssay (NCI).
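Each compound was tested at five concentrations against cells in 96-well plates for 48 hours. TGI marks complete inhibition of growth.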

Tests used:
Assay in all cases: DTP human tumour cell line panel, 48 h
[1] = tested on: CAKI-1 renal
[2] = tested on: CCRF-CEM leukemia
[3] = tested on: EKVX NSCLC
[4] = tested on: HCT-116 colon
[5] = tested on: HL-60(TB) leukemia
[6] = tested on: K-562 leukemia
[7] = tested on: M14 melanoma
[8] = tested on: MCF7 breast
[9] = tested on: MDA-MB-231 breast
[10] = tested on: MOLT-4 leukemia
[11] = tested on: NCI-H23 lung
[12] = tested on: NCI-H522 lung
[13] = tested on: PC-3 prostate
[14] = tested on: RPMI-8226 leukemia
[15] = tested on: SF-268 CNS
[16] = tested on: SF-539 CNS
[17] = tested on: SK-MEL-28 melanoma
[18] = tested on: SNB-19 CNS
[19] = tested on: SR leukemia
[20] = tested on: UACC-62 melanoma

O=C1Nc2cccc(Cl)c2/C1=C\c1c(Cl)nc2sccn12
TGI [1]: > 100 µM
TGI [2]: > 100 µM
TGI [3]: > 100 µM
TGI [4]: > 100 µM
TGI [5]: > 100 µM
TGI [6]: > 100 µM
TGI [7]: > 100 µM
TGI [8]: > 100 µM
TGI [9]: 40.3 µM
TGI [10]: > 100 µM
TGI [11]: 66.3 µM
TGI [12]: > 100 µM
TGI [13]: > 100 µM
TGI [14]: > 100 µM
TGI [15]: 52.5 µM
TGI [16]: 18.8 µM
TGI [17]: > 100 µM
TGI [18]: 39.7 µM
TGI [19]: > 100 µM
TGI [20]: > 100 µM

Cc1ccc(S(=O)(=O)NN=C2CCCCCCCCCCC2)cc1
TGI [1]: > 100 µM
TGI [2]: > 100 µM
TGI [3]: > 100 µM
TGI [4]: > 100 µM
TGI [5]: > 100 µM
TGI [6]: > 100 µM
TGI [7]: > 100 µM
TGI [8]: > 100 µM
TGI [9]: > 100 µM
TGI [10]: > 100 µM
TGI [11]: > 100 µM
TGI [12]: > 100 µM
TGI [13]: > 100 µM
TGI [14]: > 100 µM
TGI [15]: > 100 µM
TGI [16]: > 100 µM
TGI [17]: > 100 µM
TGI [18]: > 100 µM
TGI [19]: > 100 µM
TGI [20]: > 100 µM

COc1ccc(C2SCC(=O)N2c2ccc(-n3c(-c4ccccc4)nc4ccccc4c3=O)cc2)cc1OC (stereo not given)
TGI [1]: > 100 µM
TGI [2]: > 100 µM
TGI [3]: > 100 µM
TGI [4]: > 100 µM
TGI [5]: > 100 µM
TGI [6]: > 100 µM
TGI [7]: > 100 µM
TGI [8]: > 100 µM
TGI [9]: > 100 µM
TGI [10]: > 100 µM
TGI [11]: > 100 µM
TGI [12]: > 100 µM
TGI [13]: > 100 µM
TGI [14]: > 100 µM
TGI [15]: > 100 µM
TGI [16]: > 100 µM
TGI [17]: > 100 µM
TGI [18]: > 100 µM
TGI [19]: > 100 µM
TGI [20]: > 100 µM

COCC1OC(OC2C3=C(C(C)C)CCC3(C)/C=C3\C(CCC3(O)COC)C(C)C2O)C(O)C2OC3OC12OC3(C)C1CO1 (stereo not given)
TGI [1]: 99.7 µM
TGI [2]: 59.6 µM
TGI [3]: > 100 µM
TGI [4]: > 100 µM
TGI [5]: 54.1 µM
TGI [6]: > 100 µM
TGI [7]: > 100 µM
TGI [8]: > 100 µM
TGI [9]: > 100 µM
TGI [10]: 54 µM
TGI [11]: > 100 µM
TGI [12]: 82.4 µM
TGI [13]: > 100 µM
TGI [14]: > 100 µM
TGI [15]: 68.4 µM
TGI [16]: > 100 µM
TGI [17]: > 100 µM
TGI [18]: > 100 µM
TGI [19]: 75.7 µM
TGI [20]: > 100 µM

CCOc1ccc(/C(O)=C/c2nc3ccccc3nc2/C=C(\O)c2ccc(OCC)cc2)cc1
TGI [1]: > 100 µM
TGI [2]: > 100 µM
TGI [3]: > 100 µM
TGI [4]: > 100 µM
TGI [5]: > 100 µM
TGI [6]: > 100 µM
TGI [7]: > 100 µM
TGI [8]: > 100 µM
TGI [9]: > 100 µM
TGI [10]: > 100 µM
TGI [11]: > 100 µM
TGI [12]: > 100 µM
TGI [13]: > 100 µM
TGI [14]: > 100 µM
TGI [15]: > 100 µM
TGI [16]: > 100 µM
TGI [17]: > 100 µM
TGI [18]: > 100 µM
TGI [19]: 26.6 µM
TGI [20]: > 100 µM

CC(C)(C)N(Cc1ccc2c(c1)OCO2)C(=O)/C=C\S(=O)c1ccccc1 (stereo not given)
TGI [1]: 15.1 µM
TGI [2]: > 100 µM
TGI [3]: 20.9 µM
TGI [4]: 7.84 µM
TGI [5]: 7.6 µM
TGI [6]: > 100 µM
TGI [7]: 8.2 µM
TGI [8]: 14.2 µM
TGI [9]: 9.75 µM
TGI [10]: > 45.4 µM
TGI [11]: 8.79 µM
TGI [12]: 2.14 µM
TGI [13]: 9.71 µM
TGI [14]: 9.54 µM
TGI [15]: 5.78 µM
TGI [16]: 6.6 µM
TGI [17]: 22.8 µM
TGI [18]: 20.7 µM
TGI [19]: > 27.7 µM
TGI [20]: 13.6 µM

CC(C)(C)c1ccc(-c2nc3ccc([N+](=O)[O-])cc3c(=O)o2)cc1
TGI [1]: > 100 µM
TGI [2]: 58.2 µM
TGI [3]: > 100 µM
TGI [4]: 81.2 µM
TGI [5]: 65.6 µM
TGI [6]: 71.3 µM
TGI [7]: > 100 µM
TGI [8]: 89.2 µM
TGI [9]: 66 µM
TGI [10]: 46.4 µM
TGI [11]: 78.7 µM
TGI [12]: 40.7 µM
TGI [13]: 72.5 µM
TGI [14]: > 100 µM
TGI [15]: > 100 µM
TGI [16]: 43.9 µM
TGI [17]: 97.1 µM
TGI [18]: > 100 µM
TGI [19]: 68.7 µM
TGI [20]: 79.3 µM
